The values that follow come from patent US4595678A, “N-substituted pseudo-aminosugars and pharmaceutical compositions containing same” (Takeda Chemical Industries, Ltd., priority 1982, dated 1986).

For assay [1], the system named is α-glucoside hydrolase (α-glucosidase). The settings on record: earlier reports; cited from earlier work.
Assay [2] addresses maltase (porcine intestinal mucosa). Briefly: Glucosidase inhibitory activity, maltase (maltose as substrate). The format is biochemical. The settings on record: read-out: IC50 (maltase), 50% inhibition concentration, pH 6.8, 37° C., 10 minutes. The procedure: (§1) The method of assaying the glucosidase inhibitory activity.
(§2) The inhibitory activities against maltase or saccharase prepared from porcine intestinal mucosa [prepared in accordance with the procedure as described by B. Borgstrom and A. Dahlqvist in Acta Chem. Scand., 12, 1997-2006, (1958)], when maltose or sucrose is used as a substrate, were determined by adding, to 0.25 ml of a solution of an enzyme prepared by diluting suitably with 0.02M phosphate buffer (pH 6.8), 0.5 ml of an inhibitory substance to be tested (compound [I] or a pharmaceutically acceptable salt thereof) in the same buffer and 0.25 ml of 0.05M maltose or 0.05M sucrose as the substrate in the same buffer, allowing the mixture to react at 37° C. for 10 minutes, then adding 3 ml of Glucose B-Test Reagent (a glucose oxidase reagent for measurement of glucose, produced by Wako Pure Chemical Co., Japan), further warming the mixture at 37° C. for 20 minutes and measuring the absorbance of the colored reaction solution at 505 nm.

Assay [3] has as its target T1, saccharase (porcine intestinal mucosa) (Sus scrofa, UniProt P56729).
T1 construct: prepared from porcine intestinal mucosa; from tissue; host or cells: porcine intestinal mucosa
As to the kind of experiment: Glucosidase inhibitory activity, saccharase (sucrose as substrate). The assay is classed as biochemical. Here is the method: as §1, §2

Assay [4] concerns α-glucoside hydrolase (α-glucosidase). As to the kind of experiment: α-glucoside hydrolase / α-glucosidase inhibitory activity, in words. The assay is classed as biochemical. The settings on record: found by the inventors.
[5] abbreviates: read-out: IC50 (saccharase), 50% inhibition concentration, pH 6.8, 37° C., 10 minutes.

The structures appear in SMILES notation. Read-outs that look alike come from different tables or passages of the source.

T1 sequence (P56729 with tags, fused parts or gaps limits assumed): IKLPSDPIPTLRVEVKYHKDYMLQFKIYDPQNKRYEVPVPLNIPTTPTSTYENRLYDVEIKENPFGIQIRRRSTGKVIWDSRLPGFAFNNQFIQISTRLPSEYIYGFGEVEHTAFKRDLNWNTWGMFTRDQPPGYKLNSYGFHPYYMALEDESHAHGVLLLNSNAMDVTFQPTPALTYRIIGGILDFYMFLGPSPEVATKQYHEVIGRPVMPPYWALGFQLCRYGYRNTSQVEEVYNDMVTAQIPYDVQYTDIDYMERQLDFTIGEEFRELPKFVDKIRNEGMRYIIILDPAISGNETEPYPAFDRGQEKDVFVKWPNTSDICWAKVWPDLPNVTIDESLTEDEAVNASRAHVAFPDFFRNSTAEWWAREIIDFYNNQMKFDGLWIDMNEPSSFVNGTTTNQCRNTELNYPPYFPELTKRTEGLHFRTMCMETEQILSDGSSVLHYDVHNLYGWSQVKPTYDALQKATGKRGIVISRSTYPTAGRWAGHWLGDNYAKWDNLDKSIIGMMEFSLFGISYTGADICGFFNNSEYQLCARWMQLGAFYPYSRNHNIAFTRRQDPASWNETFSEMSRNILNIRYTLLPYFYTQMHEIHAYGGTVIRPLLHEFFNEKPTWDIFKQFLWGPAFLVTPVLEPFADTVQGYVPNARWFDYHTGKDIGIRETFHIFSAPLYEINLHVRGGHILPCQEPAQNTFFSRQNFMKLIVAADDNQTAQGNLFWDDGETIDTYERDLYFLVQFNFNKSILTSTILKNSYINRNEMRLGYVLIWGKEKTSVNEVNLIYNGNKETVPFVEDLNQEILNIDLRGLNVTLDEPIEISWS
T1 sequence (P56729 with tags, fused parts or gaps partner limits assumed): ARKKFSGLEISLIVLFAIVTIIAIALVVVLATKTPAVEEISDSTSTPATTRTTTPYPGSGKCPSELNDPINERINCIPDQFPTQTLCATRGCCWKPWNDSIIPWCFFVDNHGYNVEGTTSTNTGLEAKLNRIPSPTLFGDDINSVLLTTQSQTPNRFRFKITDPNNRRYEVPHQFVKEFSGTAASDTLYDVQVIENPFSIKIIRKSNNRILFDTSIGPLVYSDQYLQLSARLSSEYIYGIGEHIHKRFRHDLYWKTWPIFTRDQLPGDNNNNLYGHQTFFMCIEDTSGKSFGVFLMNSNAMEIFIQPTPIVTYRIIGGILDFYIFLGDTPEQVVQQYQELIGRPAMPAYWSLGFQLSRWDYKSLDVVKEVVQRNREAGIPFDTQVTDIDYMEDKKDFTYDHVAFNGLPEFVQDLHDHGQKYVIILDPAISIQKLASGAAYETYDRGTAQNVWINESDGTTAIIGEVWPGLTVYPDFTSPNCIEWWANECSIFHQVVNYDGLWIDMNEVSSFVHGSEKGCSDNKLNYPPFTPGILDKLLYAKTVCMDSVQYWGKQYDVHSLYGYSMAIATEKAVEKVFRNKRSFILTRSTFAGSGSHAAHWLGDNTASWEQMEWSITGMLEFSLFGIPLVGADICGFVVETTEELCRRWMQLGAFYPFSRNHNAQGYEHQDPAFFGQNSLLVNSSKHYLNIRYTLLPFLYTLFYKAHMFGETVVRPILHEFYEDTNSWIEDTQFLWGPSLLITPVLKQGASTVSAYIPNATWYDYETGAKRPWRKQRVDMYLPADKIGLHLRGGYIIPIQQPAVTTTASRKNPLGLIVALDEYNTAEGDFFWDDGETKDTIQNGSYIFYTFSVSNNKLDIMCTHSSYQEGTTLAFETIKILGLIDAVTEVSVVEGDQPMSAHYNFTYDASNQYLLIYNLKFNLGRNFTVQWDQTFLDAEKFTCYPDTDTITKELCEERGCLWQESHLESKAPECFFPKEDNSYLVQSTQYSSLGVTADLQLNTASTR

For the molecule `C[C@H]1O[C@H](O[C@@H]2[C@H](O)[C@H](O)[C@@H](O[C@@H]3[C@H](O)[C@@H](O)[C@@H](O[C@@H]4[C@H](O)[C@H](O)[C@@H](O[C@H]5O[C@@H](CO)[C@H](O)[C@H](O)[C@H]5O)O[C@@H]4CO)O[C@@H]3CO)O[C@H]2CO)[C@H](O)[C@@H](O)[C@@H]1N[C@H]1C=C(CO)[C@@H](O[C@H]2O[C@H](CO)[C@H](O[C@H]3O[C@H](C)[C@@H](N[C@H]4C=C(CO)[C@@H](O)[C@H](O)[C@H]4O)[C@H](O)[C@H]3O)[C@H](O)[C@H]2O)[C@H](O)[C@H]1O` (stereo in doubt) [Trestatin A], in assay [1], the “α-glucoside hydrolase suppressing / α-glucosidase inhibitory activity” value is reported as “far from being satisfactory”. For `C[C@H]1O[C@H](O[C@@H]2[C@H](O)[C@@H](O)[C@@H](O[C@@H]3[C@H](O)[C@@H](O)[C@@H](O[C@@H]4[C@H](O)[C@H](O)[C@@H](O[C@H]5O[C@H](CO)[C@H](O)[C@H](O)[C@H]5O)O[C@@H]4CO)O[C@@H]3CO)O[C@H]2CO)[C@@H](O)[C@@H](O)[C@@H]1N[C@@H]1C=C(CO)[C@@H](O)[C@@H](O)[C@@H]1O` (stereo in doubt) [Trestatin B], in assay [1], the “α-glucoside hydrolase suppressing / α-glucosidase inhibitory activity” value is “far from being satisfactory”. In the case of `C[C@H]1O[C@H](O[C@H]2[C@H](O)[C@@H](O)[C@@H](O[C@H]3[C@H](O)[C@@H](O)C(O)O[C@@H]3CO)O[C@@H]2CO)[C@H](O)[C@@H](O)[C@@H]1N[C@H]1C=C(CO)[C@@H](O)[C@H](O)[C@H]1O` (stereo partly shown) [Acarbose], in assay [1], the “α-glucoside hydrolase suppressing / α-glucosidase inhibitory activity” value is listed as “far from being satisfactory”.

As to `OC[C@H]1C[C@@H](N[C@H]2C[C@](O)(CO)[C@@H](O)[C@H](O)[C@H]2O)[C@H](O)[C@@H](O)[C@@H]1O` [Example 18, (1R,2S) isomer, N-[(1R,2S)-(2,4/3,5)-2,3,4-trihydroxy-5-hydroxymethylcyclohexyl]valiolamine], the IC50 in assay [2] is 44 nM; in assay [3] (pH 6.8, 37° C., 10 minutes), 48 nM. For the molecule `C[C@H]1O[C@H](O[C@H]2[C@H](O)[C@@H](O)[C@@H]3OC[C@H]2O3)[C@H](O)[C@@H](O)[C@@H]1N[C@H]1C[C@](O)(CO)[C@@H](O)[C@H](O)[C@H]1O` [Example 25, isomer (b)], the IC50 in assay [2] came out at 130 nM; in assay [3] (pH 6.8, 37° C., 10 minutes) it was 25 nM. For the molecule `C[C@H]1O[C@H](O[C@H]2[C@H](O)[C@@H](O)C(O)O[C@@H]2CO)[C@H](O)[C@@H](O)[C@@H]1N[C@H]1C[C@](O)(CO)[C@@H](O)[C@H](O)[C@H]1O` (stereo partly drawn) [Example 28, 4-O-α-[4-[(1S)-(1,2,4,5(OH)/3,5(CH2 OH))-(2,3,4,5-Tetrahydroxy-5-(hydroxymethyl)cyclohexyl)amino]-4,6-dideoxy-D-glucopyranosyl]-D-glucopyranose], the IC50 in assay [2] turned out to be 120 nM; in assay [3] (pH 6.8, 37° C., 10 minutes) it was 80 nM. As for `OC[C@H]1C[C@H](NC2[C@@H](O)C(O)O[C@H](CO)[C@H]2O)[C@H](O)[C@@H](O)[C@@H]1O` (stereo partly shown) [N-(2,3,5-trihydroxy-6-hydroxymethyltetrahydropyran-4-yl)validamine], the IC50 was 1900 nM in assay [2] and 170 nM in assay [3] (setting [5]). `OCC1=C[C@H](NC2[C@@H](O)C(O)O[C@H](CO)[C@H]2O)[C@H](O)[C@@H](O)[C@@H]1O` (stereo partly shown) [N-(2,3,5-trihydroxy-6-hydroxymethyltetrahydropyran-4-yl)valienamine]: the IC50 in assay [2] came to 31000 nM; in assay [3] (setting [5]) it was 450 nM. With `OC[C@H]1OC(O)[C@H](O)C(N[C@H]2C[C@](O)(CO)[C@@H](O)[C@H](O)[C@H]2O)[C@@H]1O` (stereo partly shown) [N-(2,3,5-trihydroxy-6-hydroxymethyltetrahydropyran-4-yl)valiolamine], the IC50 in assay [2] stood at 110 nM; in assay [3] (setting [5]), 90 nM. Consider `C[C@H]1O[C@H](O[C@H]2[C@H](O)[C@@H](O)[C@@H](O[C@H]3[C@H](O)[C@@H](O)[C@@H](O[C@H]4[C@H](O)[C@@H](O)[C@@H](O[C@H]5O[C@H](CO)[C@@H](O)[C@H](O)[C@H]5O)O[C@@H]4CO)O[C@@H]3CO)O[C@@H]2CO)[C@H](O)[C@@H](O)[C@@H]1N[C@H]1C=C(CO)[C@@H](O[C@H]2O[C@H](CO)[C@@H](O[C@H]3O[C@H](C)[C@@H](NC4C=C(CO)[C@@H](O[C@H]5O[C@H](CO)[C@@H](O[C@H]6O[C@H](C)[C@@H](NC7C=C(CO)[C@@H](O)[C@H](O)[C@H]7O)[C@H](O)[C@H]6O)[C@H](O)[C@H]5O)[C@H](O)[C@H]4O)[C@H](O)[C@H]3O)[C@H](O)[C@H]2O)[C@H](O)[C@H]1O` (stereo partly shown) [Trestatin C], for which the “α-glucoside hydrolase suppressing / α-glucosidase inhibitory activity” value in assay [1] was “far from being satisfactory”. On to `N[C@H]1C[C@H](CO)[C@@H](O)[C@H](O)[C@H]1O` [validamine], for which, in assay [4], the “α-glucoside hydrolase suppressing / α-glucosidase inhibitory activity” value is on record as “possesses a highly valuable action of suppressing the function of α-glucoside hydrolase”. As for `N[C@H]1C=C(CO)[C@@H](O)[C@H](O)[C@H]1O` [valienamine], the “α-glucoside hydrolase suppressing / α-glucosidase inhibitory activity” value in assay [1] was “possesses an action of suppressing the function of α-glucoside hydrolase”. For the molecule `N[C@H]1C[C@](O)(CO)[C@@H](O)[C@H](O)[C@H]1O` [valiolamine, 1L(1S)-(1(OH),2,4,5/1,3)-5-amino-1-hydroxymethyl-1,2,3,4-cyclohexanetetraol], the “α-glucoside hydrolase suppressing / α-glucosidase inhibitory activity” value in assay [1] is “possesses α-glucosidase inhibitory activity”.
